Experimental data from PubChem BioAssay (NCI).
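Test compounds were applied to cells in 96-well plates for 48 hours at 5 doses. TGI: total growth inhibition.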

Assays:
Assay in all cases: inhibition of tumour cell growth, NCI panel, 48 h
786-0 renal = tested on: 786-0 renal
A498 renal = tested on: A498 renal
A549 NSCLC = tested on: A549 NSCLC
ACHN renal = tested on: ACHN renal
BT-549 breast = tested on: BT-549 breast
CAKI-1 renal = tested on: CAKI-1 renal
CCRF-CEM leukemia = tested on: CCRF-CEM leukemia
COLO 205 colon = tested on: COLO 205 colon
DU-145 prostate = tested on: DU-145 prostate
EKVX NSCLC = tested on: EKVX NSCLC
HCC-2998 colon = tested on: HCC-2998 colon
HCT-116 colon = tested on: HCT-116 colon
HCT-15 colon = tested on: HCT-15 colon
HL-60(TB) leukemia = tested on: HL-60(TB) leukemia
HOP-62 NSCLC = tested on: HOP-62 NSCLC
HOP-92 NSCLC = tested on: HOP-92 NSCLC
HS 578T breast = tested on: HS 578T breast
HT29 colon = tested on: HT29 colon
IGROV1 ovarian = tested on: IGROV1 ovarian
K-562 leukemia = tested on: K-562 leukemia
KM12 colon = tested on: KM12 colon
M14 melanoma = tested on: M14 melanoma
MALME-3M melanoma = tested on: MALME-3M melanoma
MCF7 breast = tested on: MCF7 breast
MDA-MB-231 breast = tested on: MDA-MB-231 breast
MDA-MB-435 = tested on: MDA-MB-435
MDA-N = tested on: MDA-N
MOLT-4 leukemia = tested on: MOLT-4 leukemia
NCI-H23 lung = tested on: NCI-H23 lung
NCI-H522 lung = tested on: NCI-H522 lung
NCI/ADR-RES ovarian = tested on: NCI/ADR-RES ovarian
OVCAR-3 ovarian = tested on: OVCAR-3 ovarian
OVCAR-4 ovarian = tested on: OVCAR-4 ovarian
OVCAR-8 ovarian = tested on: OVCAR-8 ovarian
PC-3 prostate = tested on: PC-3 prostate
RPMI-8226 leukemia = tested on: RPMI-8226 leukemia
RXF 393 renal = tested on: RXF 393 renal
SF-268 CNS = tested on: SF-268 CNS
SF-295 CNS = tested on: SF-295 CNS
SF-539 CNS = tested on: SF-539 CNS
SK-MEL-28 melanoma = tested on: SK-MEL-28 melanoma
SK-MEL-5 melanoma = tested on: SK-MEL-5 melanoma
SK-OV-3 ovarian = tested on: SK-OV-3 ovarian
SN12C renal = tested on: SN12C renal
SNB-19 CNS = tested on: SNB-19 CNS
SNB-75 CNS = tested on: SNB-75 CNS
SR leukemia = tested on: SR leukemia
SW-620 colon = tested on: SW-620 colon
T-47D breast = tested on: T-47D breast
TK-10 renal = tested on: TK-10 renal
U251 CNS = tested on: U251 CNS
UACC-257 melanoma = tested on: UACC-257 melanoma
UACC-62 melanoma = tested on: UACC-62 melanoma
LOX IMVI melanoma = tested on: LOX IMVI melanoma
NCI-H226 lung = tested on: NCI-H226 lung
NCI-H460 lung = tested on: NCI-H460 lung
OVCAR-5 ovarian = tested on: OVCAR-5 ovarian
SK-MEL-2 melanoma = tested on: SK-MEL-2 melanoma
UO-31 renal = tested on: UO-31 renal

Compound `CC(C)C1CNC(=O)C2(C=NC(C(C)C)CNC(=O)C3(C=N1)CCCO3)CCCO2` (stereo not drawn) has a TGI (786-0 renal) of over 10 µM, a TGI (A498 renal) of over 10 µM and a TGI (A549 NSCLC) of over 10 µM. The TGI (ACHN renal) was over 10 µM, the TGI (BT-549 breast) was over 10 µM and the TGI (CAKI-1 renal) was over 10 µM. The TGI (CCRF-CEM leukemia) was over 10 µM, the TGI (COLO 205 colon) was over 10 µM and the TGI (DU-145 prostate) was over 10 µM. The TGI (EKVX NSCLC) was over 10 µM, the TGI (HCC-2998 colon) was over 10 µM and the TGI (HCT-116 colon) was over 10 µM. For the same compound, the TGI (HCT-15 colon) was over 10 µM, the TGI (HL-60(TB) leukemia) was over 10 µM and the TGI (HOP-62 NSCLC) was over 10 µM. The TGI (HOP-92 NSCLC) was over 10 µM, the TGI (HS 578T breast) was over 10 µM and the TGI (HT29 colon) was over 10 µM. It also gave a TGI (IGROV1 ovarian) of over 10 µM, a TGI (K-562 leukemia) of over 10 µM and a TGI (KM12 colon) of over 10 µM. It also gave a TGI (M14 melanoma) of over 10 µM, a TGI (MALME-3M melanoma) of over 10 µM and a TGI (MCF7 breast) of over 10 µM. For the same compound, the TGI (MDA-MB-231 breast) was over 10 µM, the TGI (MDA-MB-435) was over 10 µM and the TGI (MDA-N) was over 10 µM. For the same compound, the TGI (MOLT-4 leukemia) was over 10 µM, the TGI (NCI-H23 lung) was over 10 µM and the TGI (NCI-H522 lung) was over 10 µM. The TGI (NCI/ADR-RES ovarian) was over 10 µM, the TGI (OVCAR-3 ovarian) was over 10 µM and the TGI (OVCAR-4 ovarian) was over 10 µM. For the same compound, the TGI (OVCAR-8 ovarian) was over 10 µM, the TGI (PC-3 prostate) was over 10 µM and the TGI (RPMI-8226 leukemia) was over 10 µM. For the same compound, the TGI (RXF 393 renal) was over 10 µM, the TGI (SF-268 CNS) was over 10 µM and the TGI (SF-295 CNS) was over 10 µM. For the same compound, the TGI (SF-539 CNS) was over 10 µM, the TGI (SK-MEL-28 melanoma) was over 10 µM and the TGI (SK-MEL-5 melanoma) was over 10 µM. The TGI (SK-OV-3 ovarian) was over 10 µM, the TGI (SN12C renal) was over 10 µM and the TGI (SNB-19 CNS) was over 10 µM. For the same compound, the TGI (SNB-75 CNS) was over 10 µM, the TGI (SR leukemia) was over 10 µM and the TGI (SW-620 colon) was over 10 µM. It also gave a TGI (T-47D breast) of over 10 µM, a TGI (TK-10 renal) of over 10 µM and a TGI (U251 CNS) of over 10 µM. For the same compound, the TGI (UACC-257 melanoma) was over 10 µM and the TGI (UACC-62 melanoma) was over 10 µM.
`COc1nc(N=P(c2ccccc2)(c2ccccc2)c2ccccc2)cc(=O)n1C` was tested, and the TGI (786-0 renal) was over 100 µM, the TGI (A498 renal) was over 100 µM and the TGI (A549 NSCLC) was over 100 µM. For the same compound, the TGI (ACHN renal) was over 100 µM, the TGI (BT-549 breast) was over 100 µM and the TGI (CAKI-1 renal) was over 100 µM. For the same compound, the TGI (CCRF-CEM leukemia) was over 100 µM, the TGI (COLO 205 colon) was over 100 µM and the TGI (DU-145 prostate) was over 100 µM. It also gave a TGI (EKVX NSCLC) of over 100 µM, a TGI (HCC-2998 colon) of over 100 µM and a TGI (HCT-116 colon) of over 100 µM. The TGI (HCT-15 colon) was over 100 µM, the TGI (HL-60(TB) leukemia) was over 100 µM and the TGI (HOP-62 NSCLC) was over 100 µM. For the same compound, the TGI (HOP-92 NSCLC) was over 100 µM, the TGI (HS 578T breast) was over 100 µM and the TGI (HT29 colon) was over 100 µM. For the same compound, the TGI (IGROV1 ovarian) was over 100 µM, the TGI (K-562 leukemia) was over 100 µM and the TGI (KM12 colon) was over 100 µM. For the same compound, the TGI (LOX IMVI melanoma) was over 100 µM, the TGI (M14 melanoma) was over 100 µM and the TGI (MCF7 breast) was over 100 µM. For the same compound, the TGI (MDA-MB-231 breast) was over 100 µM, the TGI (MDA-MB-435) was over 100 µM and the TGI (MDA-N) was over 100 µM. The TGI (MOLT-4 leukemia) was over 100 µM, the TGI (NCI-H226 lung) was over 100 µM and the TGI (NCI-H23 lung) was over 100 µM. For the same compound, the TGI (NCI-H460 lung) was over 100 µM, the TGI (NCI-H522 lung) was over 100 µM and the TGI (NCI/ADR-RES ovarian) was over 100 µM. For the same compound, the TGI (OVCAR-3 ovarian) was over 100 µM, the TGI (OVCAR-4 ovarian) was over 100 µM and the TGI (OVCAR-5 ovarian) was over 100 µM. The TGI (OVCAR-8 ovarian) was over 100 µM, the TGI (PC-3 prostate) was over 100 µM and the TGI (RPMI-8226 leukemia) was over 100 µM. It also gave a TGI (RXF 393 renal) of over 100 µM, a TGI (SF-268 CNS) of over 100 µM and a TGI (SF-295 CNS) of over 100 µM. It also gave a TGI (SF-539 CNS) of over 100 µM, a TGI (SK-MEL-2 melanoma) of over 100 µM and a TGI (SK-MEL-28 melanoma) of over 100 µM. The TGI (SK-MEL-5 melanoma) was over 100 µM, the TGI (SK-OV-3 ovarian) was over 100 µM and the TGI (SN12C renal) was over 100 µM. It also gave a TGI (SNB-19 CNS) of over 100 µM, a TGI (SNB-75 CNS) of over 100 µM and a TGI (SR leukemia) of over 100 µM. The TGI (SW-620 colon) was over 100 µM, the TGI (T-47D breast) was over 100 µM and the TGI (TK-10 renal) was over 100 µM. For the same compound, the TGI (U251 CNS) was over 100 µM, the TGI (UACC-257 melanoma) was over 100 µM and the TGI (UACC-62 melanoma) was over 100 µM. It also gave a TGI (UO-31 renal) of over 100 µM.
Work on `CC(C)[C@@H]1CC[C@@H](C)C[C@H]1OC(=O)c1c2n(c3ccccc13)C[C@H]1OC(C)(C)O[C@@H]21` yielded a TGI (786-0 renal) of over 100 µM, a TGI (A549 NSCLC) of over 100 µM and a TGI (ACHN renal) of over 100 µM. The TGI (BT-549 breast) was over 100 µM, the TGI (CAKI-1 renal) was 87.3 µM and the TGI (CCRF-CEM leukemia) was over 100 µM. It also gave a TGI (COLO 205 colon) of over 100 µM, a TGI (DU-145 prostate) of over 100 µM and a TGI (EKVX NSCLC) of 73.8 µM. For the same compound, the TGI (HCC-2998 colon) was over 100 µM, the TGI (HCT-116 colon) was over 100 µM and the TGI (HCT-15 colon) was over 100 µM. It also gave a TGI (HL-60(TB) leukemia) of over 100 µM, a TGI (HOP-62 NSCLC) of over 100 µM and a TGI (HS 578T breast) of 51.9 µM. The TGI (HT29 colon) was over 100 µM, the TGI (IGROV1 ovarian) was over 100 µM and the TGI (K-562 leukemia) was over 100 µM. It also gave a TGI (KM12 colon) of over 100 µM, a TGI (LOX IMVI melanoma) of over 100 µM and a TGI (M14 melanoma) of over 100 µM. The TGI (MALME-3M melanoma) was over 100 µM, the TGI (MCF7 breast) was over 100 µM and the TGI (MDA-MB-231 breast) was over 100 µM. The TGI (MDA-MB-435) was over 100 µM, the TGI (MDA-N) was over 100 µM and the TGI (MOLT-4 leukemia) was over 100 µM. The TGI (NCI-H226 lung) was over 100 µM, the TGI (NCI-H23 lung) was 48.9 µM and the TGI (NCI/ADR-RES ovarian) was over 100 µM. It also gave a TGI (OVCAR-3 ovarian) of over 100 µM, a TGI (OVCAR-4 ovarian) of over 100 µM and a TGI (OVCAR-5 ovarian) of over 100 µM. For the same compound, the TGI (OVCAR-8 ovarian) was over 100 µM, the TGI (PC-3 prostate) was over 100 µM and the TGI (RPMI-8226 leukemia) was over 100 µM. The TGI (RXF 393 renal) was 82.9 µM, the TGI (SF-268 CNS) was over 100 µM and the TGI (SF-295 CNS) was over 100 µM. For the same compound, the TGI (SK-MEL-2 melanoma) was over 100 µM, the TGI (SK-MEL-28 melanoma) was over 100 µM and the TGI (SK-MEL-5 melanoma) was over 100 µM. It also gave a TGI (SK-OV-3 ovarian) of over 100 µM, a TGI (SN12C renal) of over 100 µM and a TGI (SR leukemia) of 24.1 µM. The TGI (SW-620 colon) was over 100 µM, the TGI (T-47D breast) was over 100 µM and the TGI (TK-10 renal) was 60.7 µM. For the same compound, the TGI (U251 CNS) was 32.5 µM, the TGI (UACC-257 melanoma) was over 100 µM and the TGI (UACC-62 melanoma) was over 100 µM. The TGI (UO-31 renal) was over 100 µM.
